{"source": "the OPERA property sets (Mansouri et al. 2018)"}
{"settings": "not given", "units": {"solubility": "µM"}}
{"smiles": "C=C(C)C(=O)Nc1ccc(Cl)c(Cl)c1", "solubility": 36.9}
{"smiles": "COCCNC(=O)CSP(=S)(OC)OC", "solubility": 73200}
{"smiles": "O=C(NN=C1C=CC(=NO)C=C1)c1ccccc1", "solubility": 20.7}
{"smiles": "CCOP(=O)(OCC)Oc1cc(C)[nH]n1", "solubility": 4270}
{"smiles": "O=c1[nH]cc(Br)c(=O)[nH]1", "solubility": 4270}
{"smiles": "CCCN(CCC)c1c([N+](=O)[O-])cc(C)cc1[N+](=O)[O-]", "solubility": 1080}
{"settings": "20 °C", "units": {"solubility": "µM"}}
{"smiles": "c1cc[n+]2c(c1)-c1cccc[n+]1CC2", "solubility": 376}
{"settings": "21 °C", "units": {"solubility": "µM"}}
{"smiles": "CNc1nc(NC(C)C)nc(OC)n1", "solubility": 17700}
{"settings": "25 °C", "units": {"solubility": "µM"}}
{"smiles": "CC(Cl)=CCl", "solubility": 24300}
{"smiles": "C/C=C(/C)C(=O)O[C@H]1CC[C@@]2(C)[C@@H]3CC[C@H]4[C@]5(O)C[C@H](O)[C@@]6(O)[C@@H](CN7C[C@@H](C)CC[C@H]7[C@@]6(C)O)[C@]5(O)C[C@@]42O[C@]13O", "solubility": 963}
{"smiles": "Cc1nn(-c2ccccc2)c(C)c1N=O", "solubility": 184}
{"smiles": "CCOP(=O)(OC=CCl)OCC", "solubility": 46600}
